The results in this text go back to patent US20250059182A1, “SOS1 INHIBITORS” (Mirati Therapeutics, Inc., priority 2021, published 2025).

One may read the IC50 as the midpoint of a concentration-inhibition curve. For orientation: Ki means a measure of affinity in units of concentration, obtained from inhibition or displacement.

Structures are written as SMILES. Where a name gives a salt, the structure may show the parent alone. Read-outs that look alike come from different tables or passages of the source. Bounds are passed on as bounds.

The subject of assay [1] is pERK in MKN1 cells. Put plainly: pERK inhibition, In-Cell Western (LI-COR Odyssey), MKN1 cells. The class given is cell-based. In a few lines: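 MKN1 cells were exposed for about 0.5–1 h at 37 °C to nine 3-fold dilutions starting at 10 µM. Cells were then fixed in formaldehyde, permeabilised with methanol, and immunostained for pERK and GAPDH with near-infrared secondary antibodies. GAPDH-normalised pERK signal relative to vehicle gave % inhibition, from which IC50 was fitted.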

Assay [2] addresses T1, recombinant human SOS1 polypeptide (amino acids 560-1049) (Homo sapiens, UniProt Q07889).
T1 construct: corresponding to amino acids 560-1049, expressed in E. Coli; made in house; host or cells: E. coli
T1 sequence (Q07889 560-1049): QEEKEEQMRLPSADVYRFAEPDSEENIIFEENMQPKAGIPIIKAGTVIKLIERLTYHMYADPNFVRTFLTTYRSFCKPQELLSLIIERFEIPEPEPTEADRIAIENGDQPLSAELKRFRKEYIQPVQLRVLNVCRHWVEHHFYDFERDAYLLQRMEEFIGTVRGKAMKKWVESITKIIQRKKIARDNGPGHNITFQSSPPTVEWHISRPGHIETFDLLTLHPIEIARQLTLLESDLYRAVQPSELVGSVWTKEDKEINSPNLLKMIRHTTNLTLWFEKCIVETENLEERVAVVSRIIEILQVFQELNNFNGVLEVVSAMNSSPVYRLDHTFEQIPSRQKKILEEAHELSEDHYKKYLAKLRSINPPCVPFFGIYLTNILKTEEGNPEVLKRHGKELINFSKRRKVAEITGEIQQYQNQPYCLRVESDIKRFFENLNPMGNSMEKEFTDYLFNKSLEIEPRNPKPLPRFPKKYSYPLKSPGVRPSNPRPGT
The experiment in a line: HTRF displacement assay: inhibition of labeled tracer binding to SOS1. A general note: TR-FRET usually uses a lanthanide donor and a delayed reading to cut background.

The mark [3] stands for this setting: Homo sapiens, MKN-1, Table B, MKN1 or H358 cells (table does not say which), 0.5-1 hour incubation, read-out: IC50 (nM), pERK inhibition.
[4] abbreviates: Table A, Morrison equation for competitive binding.
Setting [5] is: Homo sapiens, MKN-1, Table B1, MKN1 or H358 cells (table does not say which), 0.5-1 hour incubation, read-out: IC50 (nM), pERK inhibition.
The mark [6] stands for this setting: Table A1, Morrison equation for competitive binding.

Turning to `Cc1nnc(N[C@H](C)c2cccc(C(C)(F)F)c2F)c2cc(N3CCN(C)CC3)c(F)cc12` [Example 4-16, (R)-N-(1-(3-(1,1-difluoroethyl)-2-fluorophenyl)ethyl)-6-fluoro-4-methyl-7-(4-methylpiperazin-1-yl)phthalazin-1-amine], in assay [1] (setting [3]), the IC50 was determined as 52 nM. For the same compound, the Ki in assay [2] (setting [4]) was determined as 0.742 nM.

On to `COCCN(C)c1cc2c(N[C@H](C)c3cccc(C#N)c3C)nnc(C)c2cc1F` [Example 4-17, (R)-3-(1-((6-fluoro-7-((2-methoxyethyl)(methyl)amino)-4-methylphthalazin-1-yl)amino)ethyl)-2-methylbenzonitrile], for which, in assay [1] (setting [3]), the IC50 stood at 814 nM. Further, in assay [2] (setting [4]), the Ki was 9.16 nM.

On to `Cc1c(C#N)cccc1[C@@H](C)Nc1nnc(C)c2cc(F)c(N3CCN(C)C(C)(C)C3)cc12` [Example 4-18, (R)-3-(1-((6-fluoro-4-methyl-7-(3,3,4-trimethylpiperazin-1-yl)phthalazin-1-yl)amino)ethyl)-2-methylbenzonitrile], for which, in assay [1] (setting [3]), the IC50 turned out to be 118 nM. In assay [2] (setting [4]), the Ki is 1.42 nM.

On to `Cc1c(C#N)cccc1[C@@H](C)Nc1nnc(C)c2cc(F)c(N3CCS(=O)(=O)CC3)cc12` [Example 4-19, (R)-3-(1-((7-(1,1-dioxidothiomorpholino)-6-fluoro-4-methylphthalazin-1-yl)amino)ethyl)-2-methylbenzonitrile], for which, in assay [1] (setting [3]), the IC50 amounted to 551 nM. In addition, in assay [2] (setting [4]), the Ki stood at 3.53 nM.

As for `Cc1c(C#N)cccc1[C@@H](C)Nc1nnc(C)c2cc(F)c(N3C[C@@H]4C[C@H]3CN4C)cc12` [Example 4-21, 3-((R)-1-((6-fluoro-4-methyl-7-((1S,4S)-5-methyl-2,5-diazabicyclo[2.2.1]heptan-2-yl)phthalazin-1-yl)amino)ethyl)-2-methylbenzonitrile], in assay [1] (Table B, MKN1 or H358 cells (table does not say which), 0.5-1 hour incubation, read-out: IC50 (nM), pERK inhibition), the IC50 was determined as 16 nM. For the same compound, in assay [2] (setting [4]), the Ki is 2 nM.

`Cc1c([C@@H](C)Nc2nnc(C)c3cc(F)c(N4CCOCC4)cc23)cc(N)nc1C(F)(F)F` [Example 4-22, (R)-N-(1-(6-amino-3-methyl-2-(trifluoromethyl)pyridin-4-yl)ethyl)-6-fluoro-4-methyl-7-morpholinophthalazin-1-amine]: in assay [1] (setting [3]), the IC50 was found to be 49 nM. Also, the Ki in assay [2] (setting [4]) was determined as 22 nM.

Turning to `Cc1nnc(N[C@H](C)c2cccc(C(F)(F)F)c2F)c2cc(N(C)C3CCN(C)CC3)c(F)cc12` [Example 4-23, (R)-6-fluoro-N^1-(1-(2-fluoro-3-(trifluoromethyl)phenyl)ethyl)-N^7,4-dimethyl-N^7-(1-methylpiperidin-4-yl)phthalazine-1,7-diamine], in assay [1] (setting [3]), the IC50 turned out to be 25 nM. For the same compound, in assay [2] (setting [4]), the Ki is 1.2 nM.

Take `Cc1c(C#N)cccc1[C@@H](C)Nc1nnc(N2CC[C@@H](N)C2)c2cnc(N3C[C@H]4C[C@@H]3CO4)cc12` [Example 5-1, 3-((R)-1-((4-((R)-3-aminopyrrolidin-1-yl)-7-((1R, 4R)-2-oxa-5-azabicyclo[2.2.1]heptan-5-yl)pyrido[3,4-d]pyridazin-1-yl)amino)ethyl)-2-methylbenzonitrile]: the IC50 in assay [1] (setting [3]) turned out to be 1320 nM. Further, the Ki in assay [2] (setting [4]) amounted to 0.505 nM.

As to `Cc1c(C#N)cccc1[C@@H](C)Nc1nnc(N2CC[C@@H](N(C)C)C2)c2cnc(N3C[C@H]4C[C@@H]3CO4)cc12` [Example 5-2, 3-((R)-1-((7-((1R, 4R)-2-oxa-5-azabicyclo[2.2.1]heptan-5-yl)-4-((R)-3-(dimethylamino)pyrrolidin-1-yl)pyrido[3,4-d]pyridazin-1-yl)amino)ethyl)-2-methylbenzonitrile], the IC50 in assay [1] (setting [3]) is 115 nM. Besides, the Ki in assay [2] (setting [4]) is 0.973 nM.

On to `Cc1c(C#N)cccc1[C@@H](C)Nc1nnc(CN(C)C)c2cnc(N3CC4(COC4)C3)cc12` [Example 6-1, (R)-3-(1-((4-((dimethylamino)methyl)-7-(2-oxa-6-azaspiro[3.3]heptan-6-yl)pyrido[3,4-d]pyridazin-1-yl)amino)ethyl)-2-methylbenzonitrile], for which the IC50 in assay [1] (setting [3]) was determined as 171 nM. In assay [2] (setting [4]), the Ki was 18.3 nM.

On to `COc1cc2c(C)nnc(N[C@H](C)c3cccc(C#N)c3C)c2cc1OC` [Example 6-7, (R)-3-(1-((6,7-dimethoxy-4-methylphthalazin-1-yl)amino)ethyl)-2-methylbenzonitrile], for which the IC50 in assay [1] (setting [3]) is 177 nM. Further, the Ki in assay [2] (setting [4]) is 14.5 nM.

For the compound `Cc1c(C#N)cccc1[C@@H](C)Nc1nnc(C)c2cnc(C3CCN(C)CC3)cc12` [Example 6-14, (R)-2-methyl-3-(1-((4-methyl-7-(1-methylpiperidin-4-yl)pyrido[3,4-d]pyridazin-1-yl)amino)ethyl)benzonitrile], the IC50 in assay [1] (setting [3]) was 468 nM. For the same compound, the Ki in assay [2] (setting [4]) was determined as 8.89 nM.

Take `Cc1nnc(N[C@H](C)c2cccc(C(F)(F)F)c2F)c2cc(N3CCN(C)CC3)c(C#N)cc12` [Example 6-17, (R)-1-((1-(2-fluoro-3-(trifluoromethyl)phenyl)ethyl)amino)-4-methyl-7-(4-methylpiperazin-1-yl)phthalazine-6-carbonitrile]: the IC50 in assay [1] (setting [3]) came to 139 nM. Besides, the Ki in assay [2] (setting [4]) is 2.29 nM.

On to `Cc1nnc(N[C@H](C)c2cccc(C(F)(F)F)c2F)c2cc(N3CCOCC3)c(C#N)cc12` [Example 6-18, (R)-1-((1-(2-fluoro-3-(trifluoromethyl)phenyl)ethyl)amino)-4-methyl-7-morpholinophthalazine-6-carbonitrile], for which the IC50 in assay [1] (setting [3]) was determined as 311 nM. Moreover, the Ki in assay [2] (setting [4]) turned out to be 7.06 nM.

As for `Cc1c(C#N)cccc1[C@@H](C)Nc1nnc(C)c2cc(C#N)c(N3CCN(C)CC3)cc12` [Example 6-19, (R)-1-((1-(3-cyano-2-methylphenyl)ethyl)amino)-4-methyl-7-(4-methylpiperazin-1-yl)phthalazine-6-carbonitrile], the IC50 in assay [1] (setting [3]) came out at 222 nM. For the same compound, the Ki in assay [2] (setting [4]) is 2.94 nM.

Take `Cc1nnc(N[C@H](C)c2cccc(C(F)(F)F)c2F)c2cc(N3C[C@H]4C[C@@H]3CO4)c(C#N)cc12` [Example 6-20, 7-((1R,4R)-2-oxa-5-azabicyclo[2.2.1]heptan-5-yl)-1-(((R)-1-(2-fluoro-3-(trifluoromethyl)phenyl)ethyl)amino)-4-methylphthalazine-6-carbonitrile]: in assay [1] (setting [3]), the IC50 worked out at 218 nM. Moreover, in assay [2] (setting [4]), the Ki turned out to be 1.4 nM.

As to `Cc1c(C#N)cccc1[C@@H](C)Nc1nnc(C)c2cc(Cl)c(N3CCN(C)CC3)cc12` [Example 7-1, (R)-3-(1-((6-chloro-4-methyl-7-(4-methylpiperazin-1-yl)phthalazin-1-yl)amino)ethyl)-2-methylbenzonitrile], the IC50 in assay [1] (setting [3]) turned out to be 150 nM. Also, the Ki in assay [2] (setting [4]) stood at 1.79 nM.

As to `Cc1c(C#N)cccc1[C@@H](C)Nc1nnc(C)c2cnc(N3CCCCC3)cc12` [Example P-3, (R)-2-methyl-3-(1-((4-methyl-7-(piperidin-1-yl)pyrido[3,4-d]pyridazin-1-yl)amino)ethyl)benzonitrile], in assay [1] (setting [5]), the IC50 stood at 302 nM. For the same compound, the Ki in assay [2] (setting [6]) worked out at 2.22 nM.

On to `COC1(C)CCN(c2cc3c(N[C@H](C)c4cccc(C#N)c4C)nnc(C)c3cn2)CC1` [Example P-9, (R)-3-(1-((7-(4-methoxy-4-methylpiperidin-1-yl)-4-methylpyrido[3,4-d]pyridazin-1-yl)amino)ethyl)-2-methylbenzonitrile, formic acid salt], for which, in assay [1] (Homo sapiens, MKN-1, read-out: IC50 (nM), pERK inhibition), the IC50 was 90.2 nM. Further, the Ki in assay [2] (setting [6]) was determined as 0.989 nM.

As for `COC1CCN(c2cc3c(N[C@H](C)c4cccc(C#N)c4C)nnc(C)c3cn2)CC1` [Example P-15, (R)-3-(1-((7-(4-methoxypiperidin-1-yl)-4-methylpyrido[3,4-d]pyridazin-1-yl)amino)ethyl)-2-methylbenzonitrile], the IC50 in assay [1] (setting [5]) is 66.1 nM. The Ki in assay [2] (setting [6]) turned out to be 1.12 nM.

Turning to `Cc1c(C#N)cccc1[C@@H](C)Nc1nnc(C)c2cnc(N3CCn4cnnc4C3)cc12` [Example P-21, (R)-3-(1-((7-(5,6-dihydro-[1,2,4]triazolo[4,3-a]pyrazin-7(8H)-yl)-4-methylpyrido[3,4-d]pyridazin-1-yl)amino)ethyl)-2-methylbenzonitrile], the IC50 in assay [1] (setting [5]) came out at 2560 nM. In addition, the Ki in assay [2] (setting [6]) stood at 2.17 nM.

With `Cc1c(C#N)cccc1[C@@H](C)Nc1nnc(C)c2cnc(N3CCn4c(C)nnc4C3)cc12` [Example P-27, (R)-2-methyl-3-(1-((4-methyl-7-(3-methyl-5,6-dihydro-[1,2,4]triazolo[4,3-a]pyrazin-7(8H)-yl)pyrido[3,4-d]pyridazin-1-yl)amino)ethyl)benzonitrile], the IC50 in assay [1] (setting [5]) was greater than 10000 nM. The Ki in assay [2] (setting [6]) stood at 1.26 nM.

Consider `Cc1c(C#N)cccc1[C@@H](C)Nc1nnc(C)c2cnc(N3CCn4c(nnc4C(F)(F)F)C3)cc12` [Example P-33, (R)-2-methyl-3-(1-((4-methyl-7-(3-(trifluoromethyl)-5,6-dihydro-[1,2,4]triazolo[4,3-a]pyrazin-7(8H)-yl)pyrido[3,4-d]pyridazin-1-yl)amino)ethyl)benzonitrile], for which the IC50 in assay [1] (setting [5]) was found to be 121 nM. In assay [2] (setting [6]), the Ki worked out at 6.92 nM.
